Laboratory results: patent publication US10208046B2, “Nitrogen-containing heterocyclic compound” (Takeda Pharmaceutical Company Limited, priority 2014, dated 2019)

Target: T1, human M1 receptor (hCHRM1) (Homo sapiens, UniProt P11229)
T1 construct: expressed in transfected cells
T1 sequence (P11229 1-460): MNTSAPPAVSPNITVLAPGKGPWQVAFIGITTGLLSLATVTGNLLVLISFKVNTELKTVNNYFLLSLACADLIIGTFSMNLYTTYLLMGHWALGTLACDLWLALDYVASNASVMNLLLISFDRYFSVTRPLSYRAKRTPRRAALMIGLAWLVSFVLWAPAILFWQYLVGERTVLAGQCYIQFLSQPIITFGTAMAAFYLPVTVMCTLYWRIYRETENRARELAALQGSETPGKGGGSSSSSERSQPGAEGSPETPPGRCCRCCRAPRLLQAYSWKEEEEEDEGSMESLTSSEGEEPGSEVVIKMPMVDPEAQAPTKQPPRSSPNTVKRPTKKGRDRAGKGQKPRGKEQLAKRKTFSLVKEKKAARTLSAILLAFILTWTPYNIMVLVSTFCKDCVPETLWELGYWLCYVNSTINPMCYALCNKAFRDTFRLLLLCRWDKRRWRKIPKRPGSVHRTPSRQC
Assay: Measurement of M1 receptor positive allosteric modulator (M1PAM) activity, calcium fluorescence in CHO-K1 cells;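 on EC50: potency reported as IP value in nM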
Format: cell-based
Details: for activity (%) at 10 μM: 10 μM test compound with acetylcholine at EC20, 100% = acetylcholine 1 μM, 0% = DMSO; for EC50: inflection point in the concentration-dependent curve, acetylcholine at EC20 (final 0.6-0.8 nM), CHO-K1 cells expressing human M1, Fluo-4, FLIPRtetra, read-out: IP value
Protocol: Measurement of M1 Receptor Positive Allosteric Modulator (M1PAM) Activity
The activity of a test compound in the presence of acetylcholine at EC20 concentration (final concentration 0.6-0.8 nM), which affords an action corresponding to about 20% of the maximum activity, was measured as PAM activity. The method is as follows. CHO-K1 cells stably expressing a human M1 receptor (hCHRM1) were plated on a 384-well black clear bottom plate (BD Falcon) at 5,000 cells/well, and cultured in an incubator at 37° C., 5% CO2 for 1 day. The medium in the cell plate was removed, and assay buffer A containing calcium indicator (Recording medium (DOJINDO LABORATORIES), 0.1% BSA (Wako Pure Chemical Industries, Ltd.), 2.5 μg/mL Fluo-4 AM (DOJINDO LABORATORIES), 0.08% Pluronic F127 (DOJINDO LABORATORIES), 1.25 mM probenecid (DOJINDO LABORATORIES)) was added at 30 μL/well. The cells were left standing in the incubator at 37° C., 5% CO2 for 30 min, and further left standing at room temperature for 30 min. A test compound prepared by diluting with assay buffer B (HBSS (Invitrogen), 20 mM HEPES (Invitrogen), 0.1% BSA) containing 2.4-3.2 nM acetylcholine was added at 10 μL/well, and the fluorescence was measured by FLIPRtetra (Molecular Devices) for 1 min every 1 second. With the definition that the amount of change in the fluorescence on addition of acetylcholine (final concentration 1 μM) is 100% and that on addition of DMSO instead of a test compound is 0%, the activity (%) of the test compound was calculated, and the inflection point in the concentration-dependent curve of the test compound was calculated as IP values.

Compound	activity (%) at 10 μM	EC50
CCn1cc(-c2ccc(CN3Cc4ncnc(OCC(F)(F)F)c4C3=O)cc2)cn1 [Example 37, 6-(4-(1-ethyl-1H-pyrazol-4-yl)benzyl)-4-(2,2,2-trifluoroethoxy)-6,7-dihydro-5H-pyrrolo[3,4-d]pyrimidin-5-one]	98%	46 nM
Cc1nn(C)cc1-c1ccc(CN2Cc3ncnc(OCC(F)(F)F)c3C2=O)cc1 [Example 39, 6-(4-(1,3-dimethyl-1H-pyrazol-4-yl)benzyl)-4-(2,2,2-trifluoroethoxy)-6,7-dihydro-5H-pyrrolo[3,4-d]pyrimidin-5-one]	93%	40 nM
CCn1cc(-c2ccc(CN3Cc4ccnc(OCC(F)F)c4C3=O)c(F)c2)cn1 [Example 58, 4-(2,2-difluoroethoxy)-2-(4-(1-ethyl-1H-pyrazol-4-yl)-2-fluorobenzyl)-1,2-dihydro-3H-pyrrolo[3,4-c]pyridin-3-one]	104%	35 nM
CCC(F)(F)COc1nccc2c1C(=O)N(Cc1ccc(-c3cnn(CC(F)F)c3)cc1F)C2 [Example 59, 4-(2,2-difluorobutoxy)-2-(4-(1-(2,2-difluoroethyl)-1H-pyrazol-4-yl)-2-fluorobenzyl)-1,2-dihydro-3H-pyrrolo[3,4-c]pyridin-3-one]	107%	17 nM
CCn1cc(-c2ccc(CN3Cc4ccnc(OCC(F)(F)CC)c4C3=O)c(F)c2)cn1 [Example 60, 4-(2,2-difluorobutoxy)-2-(4-(1-ethyl-1H-pyrazol-4-yl)-2-fluorobenzyl)-1,2-dihydro-3H-pyrrolo[3,4-c]pyridin-3-one]	94%	7.4 nM

Further lines, results first:

activity (%) at 10 μM	EC50	Compound
96%	9 nM	Cc1nn(C)cc1-c1ccc(CN2Cc3ncnc(OCC(F)F)c3C2=O)c(F)c1 [Example 40, 4-(2,2-difluoroethoxy)-6-(4-(1,3-dimethyl-1H-pyrazol-4-yl)-2-fluorobenzyl)-6,7-dihydro-5H-pyrrolo[3,4-d]pyrimidin-5-one]
106%	23 nM	Cc1nn(C)cc1-c1ccc(CN2Cc3ncnc(OCC(F)F)c3C2=O)cc1 [Example 42, 4-(2,2-difluoroethoxy)-6-(4-(1,3-dimethyl-1H-pyrazol-4-yl)benzyl)-6,7-dihydro-5H-pyrrolo[3,4-d]pyrimidin-5-one]
86%	6.7 nM	CCn1cc(-c2ccc(CN3Cc4ncnc(OCC(C)(C)F)c4C3=O)c(F)c2)cn1 [Example 44, 6-(4-(1-ethyl-1H-pyrazol-4-yl)-2-fluorobenzyl)-4-(2-fluoro-2-methylpropoxy)-6,7-dihydro-5H-pyrrolo[3,4-d]pyrimidin-5-one]
87%	10 nM	CCn1cc(-c2ccc(CN3Cc4ncnc(OCC(C)(C)F)c4C3=O)cc2)cn1 [Example 45, 6-(4-(1-ethyl-1H-pyrazol-4-yl)benzyl)-4-(2-fluoro-2-methylpropoxy)-6,7-dihydro-5H-pyrrolo[3,4-d]pyrimidin-5-one]
90%	5.2 nM	Cc1nn(C)cc1-c1ccc(CN2Cc3ncnc(OCC(C)(C)F)c3C2=O)c(F)c1 [Example 46, 6-(4-(1,3-dimethyl-1H-pyrazol-4-yl)-2-fluorobenzyl)-4-(2-fluoro-2-methylpropoxy)-6,7-dihydro-5H-pyrrolo[3,4-d]pyrimidin-5-one]
102%	21 nM	O=C1c2c(ccnc2OCC(F)F)CN1Cc1ccc(-c2cnn(CC(F)F)c2)cc1F [Example 56, 4-(2,2-difluoroethoxy)-2-(4-(1-(2,2-difluoroethyl)-1H-pyrazol-4-yl)-2-fluorobenzyl)-1,2-dihydro-3H-pyrrolo[3,4-c]pyridin-3-one]
101%	18 nM	O=C1c2c(ccnc2OCC(F)F)CN1Cc1ccc(-c2cnn(CC(F)(F)F)c2)cc1F [Example 57]
